One assay has as its system P. vulgaris ATCC6380. The assay can be described thus: Relative respiratory activity with 22 effectors (Example 3). The assay is classed as cell-based, Proteus vulgaris. Conditions: 5 μM DCIP, no effector = 100%, n = 20; for activity at 10000 µM: effector 10 mM, read-out: relative %-respiratory activity. From the text:
(§1) In this example, each microorganism is subjected to 22 different effector compounds in addition to control measurements. […] For each microorganism, duplicate measurements were made of 22 different effector compounds. In addition, duplicate measurements were made a control test containing no effector compound. One additional measurement was made of a control solution containing the microorganism with ferricyanide but without effector or DCIP.
(§2) In this example, each normalized data set containing duplicate measurements for each of 22 effector compounds is referenced to the duplicate internal controls to allow batch-to-batch comparison. The obtained signals of charge per unit electrode area for the duplicate control measurements are averaged and set at 100% respiratory cycle activity. […] The data set used to generate pattern recognition plots consists of 5 replicate batches (each batch containing duplicate measurements for each of 22 effector compounds) for each cell culture (10 strains). This is used to generate a 50 (columns)×22 (rows) matrix. The matrix is imported into MATLAB (Version 6.0). Factor analysis is performed using the MATLAB Chemometric Toolbox (Version 2.3) and involves the generation of reduced eigenvectors to determine the optimal number of factors, examination of the resulting residuals plots for randomness, and the generation of scores for the first four principle components.

For a further assay, the system named is S. cerevisiae. The description is as above. Format: cell-based, Saccharomyces cerevisiae. Conditions: 5 μM DCIP, no effector = 100%, n = 10; for activity at 10000 µM: effector 10 mM, read-out: relative %-respiratory activity.
Text: as §1, §2

For assay [1], the system named is Staphylococcus aureus ATCC 6538P. The experiment in a line: Respiration assay (Example 1), electrochemical ferricyanide/DCIP mediator consumption. The assay is classed as cell-based. To be noted: for slope / normalized slope / relative activity: effector 10 mM; for slope: 5 μM DCIP, 50 mM ferricyanide, 35° C.; for normalized slope: area normalized; for relative activity: buffer set as 100%; for Slope data: n=2. As to the method:
(§3) The ferricyanide solution is added so that the final ferricyanide concentrations is 50 mM.
(§4) The bacterial suspensions were adjusted to a MacFarland Standard of 5.0 (5.0×10sup.8 cfu/mL) or an optical density of 1.2 measured at 625 nm and cell growth was stopped by cooling the bacterial suspension for a minimum of 15 min in an ice-bath.

Assay [2] concerns Enterobacter aerogenes ATCC 13048e. Described as above. The assay is classed as cell-based. Conditions: effector 10 mM; for slope: 5 μM DCIP, 50 mM ferricyanide, 35° C.; for normalized slope: area normalized; for relative activity: buffer set as 100%. As to the method:
as §3, §4

For the next assay, the system named is E. aerogenes ATCC13048e. The assay can be described thus: Relative respiratory activity with 22 effectors (Example 3). The assay is classed as cell-based, Enterobacter aerogenes. To be noted: 5 μM DCIP, no effector = 100%, n = 26; for activity at 10000 µM: effector 10 mM, read-out: relative %-respiratory activity.
Text: as §1, §2

Assay [3] relates to E. faecalis. The assay is described as above. The assay is classed as cell-based, Enterococcus faecalis. Conditions: 5 μM DCIP, no effector = 100%, n = 20; for activity at 10000 µM: effector 10 mM, read-out: relative %-respiratory activity.
Text: as §1, §2

Another assay relates to S. aureus ATCC6538P. The description is as above. The assay is classed as cell-based, Staphylococcus aureus. Conditions: 5 μM DCIP, no effector = 100%, n = 20; for activity at 10000 µM: effector 10 mM, read-out: relative %-respiratory activity.
Text: as §1, §2

A further assay deals with P. aeruginosa. Described as above. The assay is classed as cell-based, Pseudomonas aeruginosa. To be noted: 5 μM DCIP, no effector = 100%, n = 18; for activity at 10000 µM: effector 10 mM, read-out: relative %-respiratory activity.
Text: as §1, §2

The next assay concerns E. coli HB101. The description is as above. The assay is classed as cell-based. To be noted: 5 μM DCIP, no effector = 100%, n = 18; for activity at 10000 µM: effector 10 mM, read-out: relative %-respiratory activity.
Text: as §1, §2

The test system of a further assay is E. coli JM105. Described as above. Format: cell-based. Conditions: 5 μM DCIP, no effector = 100%, n = 10; for activity at 10000 µM: effector 10 mM, read-out: relative %-respiratory activity.
Text: as §1, §2

A further assay relates to E. coli B. Described as above. To be noted: for activity at 10000 µM: effector 10 mM, read-out: relative %-respiratory activity. The assay is classed as cell-based.
Text: as §1, §2

Another assay concerns E. coli Neotype. The assay is described as above. Conditions: 5 μM DCIP, no effector = 100%, n = 26; for activity at 10000 µM: effector 10 mM, read-out: relative %-respiratory activity. The assay is classed as cell-based.
Text: as §1, §2

Assay [4] concerns E. faecalis. The assay can be described thus: Respiration assay (Example 1), electrochemical ferricyanide/DCIP mediator consumption. Conditions: n=2. The assay is classed as cell-based, Enterococcus faecalis. On the procedure:
as §3, §4

The next assay has as its system Gram-positive bacteria. Conditions: effector 1 mM instead of 1 mM glucose, relative to + DCIP.
The mark [5] stands for this setting: Klebsiella aerogenes, ATCC13048E.
Where [6] appears, read: Staphylococcus aureus, ATCC6538P.
Where [7] appears, read: Escherichia coli, 5 μM DCIP, no effector = 100%, n = 10.

Each structure is given as a SMILES string.

Data on 4 compounds can be found in patent US20070099259A1, “ELECTROCHEMICAL ASSAY FOR THE IDENTIFICATION OF MICROORGANISMS” (RAPID LABORATORY MICROSYSTEMS INC., priority 2003, published 2007).

Description for Gram-positive bacteria: The following steps are used for each test: (1) preheating for a fixed time (4 min) and a fixed temperature (35° C.) a 150 μL aliquot of buffer containing 1 mM glucose (glc) with or without 5 μM DCIP; (2) this is followed by the addition of 50 μL of the bacterial suspension to the sample for a fixed time (10 min) and at a fixed temperature (35° C.); (3) this is followed by the addition of the mediator (50 μL of 0.4 M potassium ferricyanide) for a fixed time (10 min) and at a fixed temperature (35° C.); and (4) measurement of current at a fixed voltage difference (100 mV) between two platinum electrodes for a fixed time (120 sec) at a fixed temperature (35° C.). The final ferricyanide concentration in the sample prior to reaction with the microorganism is 40 mM.
In this configuration the assay uses two platinum electrodes each having a surface area of approximately 0.03 cm^2. The measured current depends on the concentration of the least-concentrated species of the redox-couple in solution. […] The magnitude of the measured current indicates the quantity of the reduced mediator present in the assay solution. The measured current is integrated over time to produce a plot of total charge against time. The change in total charge is measured between 30 and 120 seconds after the potential is applied. […]

`CC(=O)C(=O)O` [Pyruvic acid]: the activity at 10000 µM with P. vulgaris ATCC6380 (Proteus vulgaris, ATCC6380) was determined as 344%; with S. cerevisiae (Saccharomyces cerevisiae) it was 109%; with E. aerogenes ATCC13048e (setting [5]) it was 209%; in the assay on E. faecalis [3] (Enterococcus faecalis) it was 136%; in the assay on S. aureus ATCC6538P (setting [6]), 313%; in the assay on P. aeruginosa (Pseudomonas aeruginosa), 125%. Besides, the activity at 10000 µM was found to be 169% with E. coli HB101 (Escherichia coli, HB101); 249% in the assay with E. coli JM105 (Escherichia coli, JM105); 120% in the assay on E. coli B (setting [7]); 126% in the assay on E. coli Neotype (Escherichia coli). The slope worked out at 14.8 μC/min in assay [1] and 23.4 μC/min in assay [2]. The normalized slope in assay [1] came to 8.7 μC/min*mm^2; in [2], 13.7 μC/min*mm^2. Further, the relative activity amounted to 164% in [1] and 143% in assay [2].
In the case of `O=C[C@@H](O)[C@@H](O)[C@H](O)[C@H](O)CO` [D-mannose], the Slope data was determined as 17.8 μC/min with E. faecalis [4] (substrate 1 mM); 19.6 μC/min with E. faecalis [4] (substrate 10 mM); 14.5 μC/min in the assay on E. faecalis [4] (substrate 50 mM); 16.6 μC/min in assay [1] (substrate 1 mM); 14.0 μC/min in assay [1] (substrate 10 mM); 15.1 μC/min in [1] (substrate 50 mM). Besides, the activity at 20000 µM turned out to be 250% with P. vulgaris ATCC6380 (Proteus vulgaris, ATCC6380, effector 20 mM); 125% in the assay with S. cerevisiae (Saccharomyces cerevisiae, effector 20 mM); 296% in the assay on E. aerogenes ATCC13048e (Klebsiella aerogenes, ATCC13048E, effector 20 mM); 654% in the assay on E. faecalis [3] (Enterococcus faecalis, effector 20 mM); 262% with S. aureus ATCC6538P (Staphylococcus aureus, ATCC6538P, effector 20 mM); 108% with P. aeruginosa (Pseudomonas aeruginosa, effector 20 mM). The activity at 20000 µM was found to be 222% in the assay on E. coli HB101 (Escherichia coli, HB101, effector 20 mM); 212% in the assay with E. coli JM105 (Escherichia coli, JM105, effector 20 mM); 152% in the assay on E. coli B (Escherichia coli, effector 20 mM, 5 μM DCIP, no effector = 100%, n = 10); 139% with E. coli Neotype (Escherichia coli, effector 20 mM). Also, the “respiratory signals in the absence of 5 μM DCIP” value with Gram-positive bacteria is “below 60%”.
Take `O=C(O)CCC(=O)O` [Succinate]: the relative %-respiratory activity turned out to be 520% with P. vulgaris ATCC6380 (effector 3 mM); 108% with S. cerevisiae (effector 3 mM); 187% with E. aerogenes ATCC13048e (effector 3 mM); 87% with E. faecalis [3] (effector 3 mM); 167% in the assay on S. aureus ATCC6538P (effector 3 mM); 102% with P. aeruginosa (effector 3 mM). Further, the relative %-respiratory activity with E. coli HB101 (effector 3 mM) stood at 172%; in the assay on E. coli JM105 (effector 3 mM), 287%; in the assay with E. coli B, 134%; in the assay on E. coli Neotype (effector 3 mM), 127%. The “respiratory signals in the absence of 5 μM DCIP” value in the assay with Gram-positive bacteria is on record as less than 80%.
Regarding `CC(O)C(=O)O` (stereo not drawn) [Lactic acid, lactic acid], the activity at 10000 µM stood at 457% with P. vulgaris ATCC6380 (Proteus vulgaris, ATCC6380); 123% with S. cerevisiae (Saccharomyces cerevisiae); 182% with E. aerogenes ATCC13048e (setting [5]); 118% in the assay with E. faecalis [3] (Enterococcus faecalis); 622% in the assay with S. aureus ATCC6538P (setting [6]); 122% with P. aeruginosa (Pseudomonas aeruginosa). The activity at 10000 µM amounted to 171% in the assay on E. coli HB101 (Escherichia coli, HB101); 303% with E. coli JM105 (Escherichia coli, JM105); 192% with E. coli B (setting [7]); 126% in the assay with E. coli Neotype (Escherichia coli). Further, the slope turned out to be 24.8 μC/min in assay [1] and 27.7 μC/min in assay [2]. Besides, the normalized slope worked out at 14.6 μC/min*mm^2 in assay [1] and 16.3 μC/min*mm^2 in assay [2]. In addition, the figures for the relative activity in assay [1] and in assay [2] were 275% and 169%, respectively.
